In US7897846B2, “Maize event DP-098140-6 and compositions and methods for the identification and/or detection thereof” (Pioneer Hi-Bred Int'l, Inc., priority 2006, dated 2011):
Like-named read-outs stand apart in the source and are kept apart here.

How the values were obtained:
DP-098140-6 maize [1] = assay: Greenhouse herbicide tolerance, visual herbicide injury rating, two generations; format: in vivo, Zea mays; conditions: applied at V4
Experimental: (§1) The objective of this study was to evaluate the herbicide tolerance and protein expression in maize containing the event DP-098140-6.
(§2) Plants were grown in a greenhouse using a randomized complete block design containing four blocks. Each block consisted of twenty-four flats. Flats representing entries 1-12 (segregating 1:1) contained approximately fifteen plants per entry, while flats representing entries 13-24 (non-segregating) contained approximately ten plants per entry. Trait confirmation for GLYAT4621 was conducted for test and control entries at the V2 growth stage using lateral flow strip tests specific for the GLYAT protein. Plants with positive trait confirmation results (expressing GLYAT4621) were used for test entries and plants with negative trait confirmation results (not expressing GLYAT4621) were used as the control entries. Any remaining negative segregants not used for controls were then removed and remaining positive plants were thinned to 5 plants per entry within each block (treatment). At the V4 growth stage, a herbicide treatment containing glyphosate (1.46 L/ha or 20 oz/acre)+nonionic surfactant (0.25% vol./vol.)+ammonium sulfate (3.4 kg/ha) was applied to entries 1, 9, 13, and 21; herbicides containing thifensulfuron (3.5 g/ha or 0.5 oz/acre) and tribenuron (3.5 g/ha or 0.5 oz/acre) each containing nonionic surfactant (0.25% vol./vol.)+ammonium sulfate (3.4 kg/ha) were applied to entries 2, 10, 14 and 22; and a tank mixture of herbicides containing glyphosate, thifensulfuron and tribenuron was applied to entries 3, 11, 15, and 23 (Table 15).
(§3) Herbicide injury was evaluated visually at 14 and 21 days after herbicide application by estimating herbicide injury percentage, where “0” represented no visible injury and “100” represented complete plant death. The injury rating took into account all symptoms of herbicide injury when compared to the untreated entry for the same maize line. Injury symptoms included discoloration, leaf speckling, and wilting. The untreated entries for each maize line were rated as 0% injury and the herbicide treated entries of the same maize line were rated by comparing them to this untreated entry. Photographs were taken at 21 days following herbicide application to record herbicide injury. In order to further characterize tolerance to ALS-inhibiting herbicides, a characteristic of the zm-hra gene in DP-098140-6 maize, plant heights were measured for all entries at 14 and 21 days post herbicide treatment. Plant height was measured in cm from the soil surface to the tip of the highest leaf when extended by hand.
(§4) Means, standard error and P-values were calculated for plant height data. Means were calculated for herbicide injury scores. Means, ranges and standard deviations of protein expression data were calculated for each protein expressed in leaf and seed tissues.

[2] = system: near isoline control maize; assay: as above; format: in vivo, Zea mays; conditions: for Average Herbicide Injury Rating: Control maize, 0-100 scale, applied at V4
Experimental: as §1, §2, §3, §4

DP-098140-6 maize [3] = format: in vivo, Zea mays; conditions: 98140 maize
Experimental: as §2, §3, §4

[4] = system: near isoline control maize; format: in vivo, Zea mays
Experimental: as §2, §3, §4

[5] = GLYAT4621 sandwich ELISA, leaf tissue at V5 stage (pg/μg total extractable protein); design: species or system Zea mays; conditions: DP-098140-6 maize leaf tissue, V5 growth stage, greenhouse; 20 plants
Experimental: Expression of the GLYAT4621 and Zm-HRA proteins has been evaluated on the leaf tissue collected at the V5 stage of growth from plants cultivated in greenhouses. For each sample, four fresh leaf punches were collected and ground in sample extraction buffer using a GenoGrinder (Spex Certiprep). Total Extractable Protein (TEP) was determined using the Bio-Rad Protein assay, which is based on the Bradford dye-binding procedure. Sample extracts were diluted in sample extraction buffer for ELISA analysis.
The GLYAT4621 and ZM-HRA ELISA's utilize a “sandwich” format for the quantification of the specific target protein in plant tissue extracts. […] The reaction is stopped with Sulfuric acid and the optical density of each well is determined using a Molecular Devices plate reader with a wavelength setting of 450 nm-650 nm. […] The mean concentration from the duplicate wells is expressed as pg target protein/μg of total extractable protein (TEP). The sample lower limit of quantification (LLOQ) was 10 pg GLYAT4621 protein/μg TEP and the upper detection limit was 2000 pg GLYAT4621 protein/μg TEP. The sample lower limit of quantification was 20 pg ZM-HRA protein/μg TEP and the upper detection limit was 5000 pg ZM-HRA protein/μg TEP.

O=C(O)CNCP(=O)(O)O [Glyphosate, glyphosate]
Average Herbicide Injury Rating (DP-098140-6 maize [1]; Generation 1, 14 days post-treatment, 0 = no visible injury, 100 = complete plant death): 0
Average Herbicide Injury Rating (DP-098140-6 maize [1]; Generation 1, 21 days post-treatment, 0-100 scale): 0
Average Herbicide Injury Rating (DP-098140-6 maize [1]; Generation 2, 14 days post-treatment, 0-100 scale): 0
Average Herbicide Injury Rating (DP-098140-6 maize [1]; Generation 2, 21 days post-treatment, 0-100 scale): 0
Average Herbicide Injury Rating ([2]; Generation 1, 14 days post-treatment): 100
Average Herbicide Injury Rating ([2]; Generation 1, 21 days post-treatment): 100
Average Herbicide Injury Rating ([2]; Generation 2, 14 days post-treatment): 100
Average Herbicide Injury Rating ([2]; Generation 2, 21 days post-treatment): 100
injury ([2]; sprayed control maize, both generations): 100%
Plant height, Least Square Means (DP-098140-6 maize [3]; Generation 1, 14 days following treatment): 103 cm
Plant height, Least Square Means (DP-098140-6 maize [3]; Generation 1, 21 days following treatment): 120 cm
Plant height, Least Square Means (DP-098140-6 maize [3]; Generation 2, 14 days following treatment): 101 cm
Plant height, Least Square Means (DP-098140-6 maize [3]; Generation 2, 21 days following treatment): 115 cm
Plant height, Least Square Means ([4]; Generation 1, 14 days following treatment, 0 cm = visible plant that has died due to herbicide treatment): 0.00 cm
Plant height, Least Square Means ([4]; Generation 1, 21 days following treatment, 0 cm = visible plant that has died due to herbicide treatment): 0.00 cm
Plant height, Least Square Means ([4]; Generation 2, 14 days following treatment, 0 cm = plant died due to herbicide): 0.00 cm
Plant height, Least Square Means ([4]; Generation 2, 21 days following treatment, 0 cm = plant died due to herbicide): 0.00 cm

B1: GLYAT4621: glyphosate acetyltransferase protein encoded by the glyat4621 gene, expressed in DP-098140-6 maize (protein)
chain: MAIEVKPINAEDTYDLRHRVLRPNQPIEACMFESDLTRSAFHLGGFYGGKLISVASFHQAEHSELQGKKQYQLRGVATLEGYREQKAGSSLVKHAEEILRKRGADMIWCNARTSASGYYRKLGFSEQGEVFDTPPVGPHILMYKR
modifications: GAT4621 probe
notes: glyphosate acetyltransferase protein encoded by the glyat4621 gene, expressed in DP-098140-6 maize
Expression level of GLYAT4621 protein, Mean [5]: 571.7 pg/μg TEP
